PMC3578785, “Improved BM212 MmpL3 Inhibitor Analogue Shows Efficacy in Acute Murine Model of Tuberculosis Infection” (PLoS ONE, 2013)
Values after ≈ are worked out from the molar mass of the structure shown. Like-named read-outs stand apart in the source and are kept apart here.

Columns and labels:
M. tuberculosis H37Rv = assay: microbe, parasite or virus in culture; type: cell-based; details: Mycobacterium tuberculosis, aerobic conditions
[1] = target: human serum albumin (HSA) (Homo sapiens, UniProt P02768); type: in vitro ADME; details: human, pH 7.4
Sequence of human serum albumin (HSA) (P02768 25-609): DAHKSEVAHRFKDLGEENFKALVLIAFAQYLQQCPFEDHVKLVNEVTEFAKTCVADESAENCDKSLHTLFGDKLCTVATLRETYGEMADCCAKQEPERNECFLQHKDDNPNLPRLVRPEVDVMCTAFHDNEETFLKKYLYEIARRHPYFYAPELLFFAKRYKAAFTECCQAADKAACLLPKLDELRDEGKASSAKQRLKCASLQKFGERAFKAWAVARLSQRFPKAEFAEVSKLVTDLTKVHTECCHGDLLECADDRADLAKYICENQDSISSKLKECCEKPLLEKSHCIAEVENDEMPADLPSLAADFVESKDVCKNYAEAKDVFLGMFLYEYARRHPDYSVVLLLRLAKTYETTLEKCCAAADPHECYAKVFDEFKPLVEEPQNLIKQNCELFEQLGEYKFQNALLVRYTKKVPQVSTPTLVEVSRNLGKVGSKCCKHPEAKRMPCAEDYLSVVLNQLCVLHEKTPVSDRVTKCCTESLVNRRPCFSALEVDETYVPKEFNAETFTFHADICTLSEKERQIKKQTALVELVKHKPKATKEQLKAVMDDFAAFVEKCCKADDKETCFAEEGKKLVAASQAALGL
Protocol: Standard physical chemical property determination methods were used. Please see the Supporting Information for details.
Protocol S4. Determination of compounds binding to human serum albumin (HSA).
The determination of compounds binding to human serum albumin (HSA) was carried out by retention time measurements using immobilized HSA HPLC columns obtained from Chiral Technologies Ltd, France. The column dimensions were 50x3 mm. The mobile phase was 50 mM ammonium acetate buffer pH 7.4 and HPLC grade 2-propanol. HPLC Method: flow rate 1.8 ml/min applying 2.5 min 2-propanol gradient up to 30%. From 2.5 min to 4.5 min the 2-propanol concentration in the mobile phase was kept at 30%. From 4.5 min to 4.6 min, the 2-propanol concentration was decreased to 0% and kept like that until the end of the gradient run which was 6 min. A calibration set of compounds was first analyzed for which plasma protein binding data were available: Warfarin, Nizatidine, Bromazepam, Carbamazepine, Budesonide, Nicardipine, Indomethacine, Piroxicam, Naproxen. The calculation of the HSA binding data expressed as %HSA was carried out as described previously.

in vitro [2] = type: in vitro ADME, mouse; details: pH 7.4; for Cli mouse: 0.5 µM; for half-life: mouse microsomes, read-out: t1/2 in mouse microsomes
Protocol: (§1) Protocol S6. Microsomal fraction stability experimental procedure.
(§2) Pooled mouse and human liver microsomes are purchased from Xenotech. Microsomes (final protein concentration 0.5 mg/mL, MgCl2 (final concentration = 5 mM) and test compound (final substrate concentration = 0.5 µM; final DMSO concentration = 0.5%) in 0.1M phosphate buffer pH 7.4 were pre-incubated at 37°C prior to the addition of NADPH (final concentration = 1 mM) to initiate the reaction. The final incubation volume was 600 µL. A control incubation was included for each compound tested where 0.1 M phosphate buffer pH 7.4 is added instead of NADPH (minus NADPH). One control compound was included with each species. All incubations were performed singularly for each test compound. Each compound was incubated for 30 minutes and samples (90 µL) of incubate were taken at 0, 5, 15, 20 and 30 min. The control (minus NADPH) was sampled at 30 min only. The reactions were stopped by the addition of sample to 200 µL Acetonitrile:Methanol 3:1 containing internal standard. The terminated samples were centrifuged at 2.500 rpm for 20 min at 4°C to precipitate the protein.
(§3) Quantitative Analysis: following protein precipitation, the samples were analyzed using specific […]
(§4) Data Analysis: from a plot of ln peak area ratio (compound peak area/internal standard peak area) against time, the gradient of the line was determined. Subsequently, half-life and intrinsic clearance were calculated using the equations below:
(§5) Elimination rate constant (k) = (- gradient)
(§6) Half life (t1/2) (min) = […]
(§7) Intrinsic Clearance (CLint) (mL/min/g protein) = […] where V=Incubation volume mL/g microsomal protein.

in vitro [3] = type: in vitro ADME, human; details: pH 7.4; for Cli human: 0.5 µM; for half-life: human microsomes, read-out: t1/2 in human microsomes
Protocol: as §1, §2, §3, §4, §5, §6, §7

HepG2 cells = details: human, 48 h
in vitro [4] = details: African green monkey
in vitro [5] = details: plasma, pH 7.4

Structure (SMILES)	MIC (M. tuberculosis H37Rv) [µM]	HSA (%) binding [1] [%]	Cli mouse (in vitro [2]) [mL/min/g]	half-life (in vitro [2]) [min]	Cli human (in vitro [3]) [mL/min/g]	half-life (in vitro [3]) [min]	melting point [°C]	Tox50, cytotoxicity in HepG2 cells (HepG2 cells) [µM]	CC50 at 72 h (in vitro [4]) [µM]	chromatographic logD (physchem; pH 2)	chromatographic logD (physchem; pH 7.4)	chromatographic logD (physchem; pH 10.5)	fraction unbound at 1 µM (in vitro [5])
CCc1ccc(-c2cc(CN3CCOCC3)c(C)n2-c2ccc(OC)cc2)cc1 [Compound 19, 2-Methyl-3-[(morpholin-4-yl)-methyl]-5-[4-(ethyl)phenyl]-1-[4-(methoxy)phenyl]-1H-pyrrole]	0.3 (≈ 0.117 µg/mL)	96.65	9.45	< 5	1.71	> 30	101	5.7	30	1.21	3.99	4.5	0.003
Cc1ccc(-c2cc(CN3CCOCC3)c(C)n2-c2ccc(F)cc2)cc1 [Compound 5, 2-Methyl-3-[(morpholin-4-yl)-methyl]-5-[4-(methyl)phenyl]-1-[4-(fluoro)phenyl]-1H-pyrrole]	0.3 (≈ 0.109 µg/mL)	96.72		20.4	<0.5	> 30	133 to 135	20.08	> 351	1.12	3.86	4.26	0.005
CCCc1ccc(-c2cc(CN3CCOCC3)c(C)n2-c2ccc(Cl)cc2)cc1 [Compound 12, 2-Methyl-3-[(morpholin-4-yl)-methyl]-5-[4-(propyl)phenyl]-1-[4-(chloro)phenyl]-1H-pyrrole]	2 (≈ 0.818 µg/mL)	98.00		> 30	<0.5	> 30	113	13.3	> 256	1.61	5.3	5.59	< 0.001
CCc1ccc(-c2cc(CN3CCOCC3)c(C)n2-c2ccc(Cl)cc2)cc1 [Compound 11, 2-Methyl-3-[(morpholin-4-yl)-methyl]-5-[4-(ethyl)phenyl]-1-[4-(chloro)phenyl]-1H-pyrrole]	0.2 (≈ 0.079 µg/mL)	97.74	2.83	25	0.52	> 30	134	8.8	> 256	1.42	4.77	5.16	< 0.001
CCCc1ccc(-c2cc(CN3CCOCC3)c(C)n2-c2ccc(OC)cc2)cc1 [Compound 20, 2-Methyl-3-[(morpholin-4-yl)-methyl]-5-[4-(propyl)phenyl]-1-[4-(methoxy)phenyl]-1H-pyrrole]	0.3 (≈ 0.121 µg/mL)	97.17	5.75	10.9	0.61	> 30	107	14.3	> 256	1.4	4.46	4.93	< 0.001
COc1ccc(-n2c(-c3ccc(C)cc3)cc(CN3CCOCC3)c2C)cc1 [Compound 18, 2-Methyl-3-[(morpholin-4-yl)-methyl]-5-[4-(methyl)phenyl]-1-[4-(methoxy)phenyl]-1H-pyrrole]	2 (≈ 0.753 µg/mL)	95.87	8.92	< 5	1.26	59.9	128	11.7	208	1.04	3.6	4.12	0.007
Cc1c(CN2CCOCC2)cc(-c2ccc(C(C)C)cc2)n1-c1ccc(Cl)cc1 [Compound 13, 2-Methyl-3-[(morpholin-4-yl)-methyl]-5-[4-(i-propyl)phenyl]-1-[4-(chloro)phenyl]-1H-pyrrole]	0.6 (≈ 0.245 µg/mL)	97.94		> 30	0.71	> 30	135	10.0	241	1.56	5.13	5.45	< 0.001
COc1ccc(-n2c(-c3ccc(C(C)C)cc3)cc(CN3CCOCC3)c2C)cc1 [Compound 21, 2-Methyl-3-[(morpholin-4-yl)-methyl]-5-[4-(i-propyl)phenyl]-1-[4-(methoxy)phenyl]-1H-pyrrole]	0.3 (≈ 0.121 µg/mL)	97.07	6.07	10.7	2.15	> 30	109	14.1	28.2	1.35	4.32	4.81	0.001
Cc1c(CN2CCOCC2)cc(-c2ccc(Cl)cc2)n1-c1ccc(C(C)C)cc1 [Compound 17, 2-Methyl-3-[(morpholin-4-yl)-methyl]-5-[4-(chloro)phenyl]-1-[4-(i-propyl)phenyl]-1H-pyrrole]	0.9 (≈ 0.368 µg/mL)	98.19	3.8 ± 0.1	19.6	0.5 ± 0	> 30	113	14.7	175	1.67	5.43	5.7	< 0.001
